Results: ChEMBL document CHEMBL1201862, “PubChem BioAssay data set” (2004)
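Each compound was tested at five concentrations against cells in 96-well plates for 48 hours. GI50 is the concentration that inhibits growth by half.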 The source made the active and inactive calls. Cut-off read from the data, not from the text of the source: active = GI50 up to about 1.1 µM and inactive = higher.

Assays:
Experiment in all cases: DTP human tumour cell line panel, 48 h
EKVX = system: EKVX
A498 = system: A498
NCI/ADR-RES = system: NCI/ADR-RES
OVCAR-8 = system: OVCAR-8
UACC-62 = system: UACC-62
RXF 393 = system: RXF 393
T47D = system: T47D
KM12 = system: KM12
COLO 205 = system: COLO 205
OVCAR-3 = system: OVCAR-3
MDA-MB-435 = system: MDA-MB-435
MOLT-4 = system: MOLT-4
SK-MEL-5 = system: SK-MEL-5
NCI-H23 = system: NCI-H23
MDA-MB-231 = system: MDA-MB-231
CAKI-1 = system: CAKI-1
SF-268 = system: SF-268
U-251 = system: U-251
HOP-92 = system: HOP-92
MDA-N = system: MDA-N

SMILES	GI50 (EKVX)	GI50 (A498)	GI50 (NCI/ADR-RES)	GI50 (OVCAR-8)	GI50 (UACC-62)	GI50 (RXF 393)	GI50 (T47D)	GI50 (KM12)	GI50 (COLO 205)	GI50 (OVCAR-3)	GI50 (MDA-MB-435)	GI50 (MOLT-4)	GI50 (SK-MEL-5)	GI50 (NCI-H23)	GI50 (MDA-MB-231)	GI50 (CAKI-1)	GI50 (SF-268)	GI50 (U-251)	GI50 (HOP-92)	GI50 (MDA-N)
C[C@@H]1CCC[C@]2(C)O[C@H]2CC[C@@](C)(O)[C@@H]2CC3=C(CO)C(=O)O[C@H]3[C@H]1O2	> 50 µM (inactive)	> 50 µM (inactive)	> 50 µM (inactive)	> 50 µM (inactive)	> 50 µM (inactive)	> 50 µM (inactive)	> 50 µM (inactive)	> 50 µM (inactive)	> 50 µM (inactive)	> 50 µM (inactive)	> 50 µM (inactive)	> 50 µM (inactive)	> 50 µM (inactive)	> 50 µM (inactive)	> 50 µM (inactive)	> 50 µM (inactive)	> 50 µM (inactive)	> 50 µM (inactive)	> 50 µM (inactive)	
COC(=O)[C@H]1ON2O[C@@H](O[C@H]3CCCC[C@@H]3C(C)(C)c3ccccc3)C[C@@H]3CC[C@H]1[C@@]32C	> 100 µM (inactive)	> 100 µM (inactive)	> 100 µM (inactive)	> 100 µM (inactive)	> 100 µM (inactive)	> 100 µM (inactive)	> 100 µM (inactive)	> 100 µM (inactive)	> 100 µM (inactive)	> 100 µM (inactive)	> 100 µM (inactive)	> 100 µM (inactive)	> 100 µM (inactive)	> 100 µM (inactive)		> 100 µM (inactive)	> 100 µM (inactive)	> 100 µM (inactive)	> 100 µM (inactive)	> 100 µM (inactive)
COc1cc2cc[n+](C)c(Cc3ccc(Oc4cc(Cc5c6cc(OC)c(OC)cc6cc[n+]5C)ccc4OC)cc3)c2cc1OC	> 100 µM (inactive)	> 100 µM (inactive)		> 100 µM (inactive)	> 100 µM (inactive)	> 100 µM (inactive)	> 100 µM (inactive)	> 100 µM (inactive)	> 100 µM (inactive)	> 100 µM (inactive)	> 100 µM (inactive)	60.1 µM (inactive)	> 100 µM (inactive)	> 100 µM (inactive)	> 100 µM (inactive)	> 100 µM (inactive)	> 100 µM (inactive)	> 100 µM (inactive)	> 100 µM (inactive)	> 100 µM (inactive)
C=C1C(=O)O[C@@H]2[C@H]1CC[C@H](C)[C@]1(O)CCC(=O)[C@@]21C [CORONOPILIN]	> 10 µM (inactive)		> 10 µM (inactive)	> 10 µM (inactive)	> 10 µM (inactive)	> 10 µM (inactive)	> 10 µM (inactive)	> 10 µM (inactive)	> 10 µM (inactive)	> 10 µM (inactive)	> 10 µM (inactive)	> 10 µM (inactive)	> 10 µM (inactive)	4.16 µM (inactive)			> 10 µM (inactive)	> 10 µM (inactive)	> 10 µM (inactive)	> 10 µM (inactive)
Nc1nc2[nH]cc(CCc3ccc(C(=O)N[C@@H](CCC(=O)O)C(=O)O)cc3)c2c(=O)[nH]1 [PEMETREXED]	> 100 µM (inactive)	0.27 µM (active)			0.23 µM (active)	> 100 µM (inactive)	> 100 µM (inactive)	> 100 µM (inactive)	> 100 µM (inactive)	> 100 µM (inactive)	> 100 µM (inactive)	0.0695 µM (active)	> 100 µM (inactive)	> 100 µM (inactive)	10.3 µM (inactive)	> 100 µM (inactive)	0.387 µM (active)	> 100 µM (inactive)	> 100 µM (inactive)	> 100 µM (inactive)
